Molecules are shown by their SMILES. Values after ≈ are worked out from the molar mass of the structure shown. Like-named read-outs stand apart in the source and are kept apart here.

The test relates to Mycobacterium tuberculosis (Mtb-GFP; H37Rv pMSP12::GFP). Description: microbe, parasite or virus in culture. It is filed as cell-based. The following applies: 168 h.
The mark [1] stands for this setting: pH 6.8, read-out: Mtb Cho MITC95.
Setting [2] is: pH 6.8, read-out: Mtb Glu MITC95.

In the case of `Cn1nccc1-c1ccc(N2C[C@H](CN/C(N)=N/C#N)OC2=O)cc1F` [Example 1, (S,E)-2-cyano-1-((3-(3-fluoro-4-(1-methyl-1H-pyrazol-5-yl)phenyl)-2-oxooxazolidin-5-yl)methyl)guanidine], the MIC under setting [1] stood at 0.78 µM (≈ 0.279 µg/mL) and the MIC under setting [2] was 0.78 µM (≈ 0.279 µg/mL).
On to `Cc1nnn(-c2ccc(-c3ccc(N4C[C@H](CN/C(N)=N/C#N)OC4=O)cc3F)cn2)n1` [Example 2, (S,E)-2-cyano-1-((3-(3-fluoro-4-(6-(5-methyl-2H-tetrazol-2-yl)pyridin-3-yl)phenyl)-2-oxooxazolidin-5-yl)methyl)guanidine], for which the MIC worked out at 0.19 µM (≈ 0.0829 µg/mL) under setting [1] and 0.09 µM (≈ 0.0393 µg/mL) under setting [2].
In the same order, the values of `N#C/N=C(\N)NC[C@H]1CN(c2ccc(-c3ccc(-n4nccn4)nc3)c(F)c2)C(=O)O1` [Example 3, (S,E)-1-((3-(4-(6-(2H-1,2,3-triazol-2-yl)pyridin-3-yl)-3-fluorophenyl)-2-oxooxazolidin-5-yl)methyl)-2-cyanoguanidine] are 0.19 µM (≈ 0.0801 µg/mL) and 0.19 µM (≈ 0.0801 µg/mL).
The like results for `CS(=O)(=O)c1ccc(-c2ccc(N3C[C@H](CN/C(N)=N/C#N)OC3=O)cc2F)cc1` [Example 4, (S,E)-2-cyano-1-((3-(2-fluoro-4′-(methylsulfonyl)-[1,1′-biphenyl]-4-yl)-2-oxooxazolidin-5-yl)methyl)guanidine] were, in that order, 0.39 µM (≈ 0.168 µg/mL) and 0.39 µM (≈ 0.168 µg/mL).
On to `CS(=O)(=O)c1ccc(-c2ccc(N3C[C@H](CN/C(N)=N/C#N)OC3=O)cc2F)cn1` [Example 5, (S,E)-2-cyano-1-((3-(3-fluoro-4-(6-(methylsulfonyl)pyridin-3-yl)phenyl)-2-oxooxazolidin-5-yl)methyl)guanidine], for which the MIC by setting is: under setting [1], 0.39 µM (≈ 0.169 µg/mL); under setting [2], 0.78 µM (≈ 0.337 µg/mL).
The like results for `C/C(=N\C#N)NC[C@H]1CN(c2ccc(-c3ccnn3C)c(F)c2)C(=O)O1` [Example 6, (S,E)-N′-cyano-N-((3-(3-fluoro-4-(1-methyl-1H-pyrazol-5-yl)phenyl)-2-oxooxazolidin-5-yl)methyl)acetimidamide] were, in that order, 0.78 µM (≈ 0.278 µg/mL) and 0.78 µM (≈ 0.278 µg/mL).
The like results for `C/C(=N\C#N)NC[C@H]1CN(c2ccc(-c3cccc(S(N)(=O)=O)c3)c(F)c2)C(=O)O1` [Example 7, (S,E)-N′-cyano-N-((3-(2-fluoro-3′-sulfamoyl-[1,1′-biphenyl]-4-yl)-2-oxooxazolidin-5-yl)methyl)acetimidamide] were, in that order, 1.14 µM (≈ 0.492 µg/mL) and 1.5 µM (≈ 0.647 µg/mL).
The like results for `C/C(=N\C#N)NC[C@H]1CN(c2cnc(N3CCS(=O)(=O)CC3)c(F)c2)C(=O)O1` [Example 8, (S,E)-N′-cyano-N-((3-(6-(1,1-dioxidothiomorpholino)-5-fluoropyridin-3-yl)-2-oxooxazolidin-5-yl)methyl)acetimidamide] were, in that order, 6.25 µM (≈ 2.57 µg/mL) and 6.25 µM (≈ 2.57 µg/mL).
With `C/C(=N\C#N)NC[C@H]1CN(c2ccc(N3CCOCC3)c(F)c2)C(=O)O1` [Example 9, (S,E)-N′-cyano-N-((3-(3-fluoro-4-morpholinophenyl)-2-oxooxazolidin-5-yl)methyl)acetimidamide], the MIC worked out at 3.12 µM (≈ 1.13 µg/mL) under setting [1] and 3.12 µM (≈ 1.13 µg/mL) under setting [2].
On to `C/C(=N\C#N)NC[C@H]1CN(c2ccc(-c3ccc(-n4nccn4)nc3)c(F)c2)C(=O)O1` [Example 10, (S,E)-N-((3-(4-(6-(2H-1,2,3-triazol-2-yl)pyridin-3-yl)-3-fluorophenyl)-2-oxooxazolidin-5-yl)methyl)-N′-cyanoacetimidamide], for which the MIC by setting is: under setting [1], 0.39 µM (≈ 0.164 µg/mL); under setting [2], 0.14 µM (≈ 0.0589 µg/mL).
In the same order, the values of `C/C(=N\C#N)NC[C@H]1CN(c2cc(F)c(N3CCS(=O)(=O)CC3)c(F)c2)C(=O)O1` [Example 11, (S,E)-N′-cyano-N-((3-(4-(1,1-dioxidothiomorpholino)-3,5-difluorophenyl)-2-oxooxazolidin-5-yl)methyl)acetimidamide] are 3.12 µM (≈ 1.33 µg/mL) and 1.5 µM (≈ 0.641 µg/mL).
In the same order, the values of `C/C(=N\C#N)NC[C@H]1CN(c2ccc(-c3ccc(-n4nnc(C)n4)nc3)c(F)c2)C(=O)O1` [Example 12, (S,E)-N′-cyano-N-((3-(3-fluoro-4-(6-(5-methyl-2H-tetrazol-2-yl)pyridin-3-yl)phenyl)-2-oxooxazolidin-5-yl)methyl)acetimidamide] are 0.19 µM (≈ 0.0827 µg/mL) and 0.14 µM (≈ 0.061 µg/mL).
In the same order, the values of `C/C(=N\C#N)NC[C@H]1CN(c2ccc(-c3ccc(S(C)(=O)=O)nc3)c(F)c2)C(=O)O1` [Example 13, (S,E)-N′-cyano-N-((3-(3-fluoro-4-(6-(methylsulfonyl)pyridin-3-yl)phenyl)-2-oxooxazolidin-5-yl)methyl)acetimidamide] are 1.5 µM (≈ 0.647 µg/mL) and 0.78 µM (≈ 0.337 µg/mL).
Consider `C/C(=N\C#N)NC[C@H]1CN(c2ccc(-c3ccc(S(C)(=O)=O)cc3)c(F)c2)C(=O)O1` [Example 14, (S,E)-N′-cyano-N-((3-(2-fluoro-4′-(methylsulfonyl)-[1,1′-biphenyl]-4-yl)-2-oxooxazolidin-5-yl)methyl)acetimidamide], for which the MIC under setting [1] came out at 0.58 µM (≈ 0.25 µg/mL) and the MIC under setting [2] came out at 0.58 µM (≈ 0.25 µg/mL).
On to `Cn1nccc1-c1ccc(N2C[C@H](CNC=N)OC2=O)cc1F` [Example 15, (S)-N-((3-(3-fluoro-4-(1-methyl-1H-pyrazol-5-yl)phenyl)-2-oxooxazolidin-5-yl)methyl)formimidamide], for which the MIC under setting [1] was found to be 0.78 µM (≈ 0.248 µg/mL) and the MIC under setting [2] was found to be 0.39 µM (≈ 0.124 µg/mL).
The like results for `CS(=O)(=O)c1ccc(-c2ccc(N3C[C@H](CNC=N)OC3=O)cc2F)cc1` [Example 16, (S)-N-((3-(2-fluoro-4′-(methylsulfonyl)-[1,1′-biphenyl]-4-yl)-2-oxooxazolidin-5-yl)methyl)formimidamide] were, in that order, 0.39 µM (≈ 0.153 µg/mL) and 0.19 µM (≈ 0.0744 µg/mL).
In the same order, the values of `N=CNC[C@H]1CN(c2ccc(-c3ccc(-n4cnnn4)nc3)c(F)c2)C(=O)O1` [Example 17, (S)-N-((3-(4-(6-(1H-tetrazol-1-yl)pyridin-3-yl)-3-fluorophenyl)-2-oxooxazolidin-5-yl)methyl)formimidamide] are 0.24 µM (≈ 0.0918 µg/mL) and 0.12 µM (≈ 0.0459 µg/mL).
The like results for `N=CNC[C@H]1CN(c2cc(F)c(-c3ccc(S(N)(=O)=O)cc3)c(F)c2)C(=O)O1` [Example 18, (S)-N-((3-(2,6-difluoro-4′-sulfamoyl-[1,1′-biphenyl]-4-yl)-2-oxooxazolidin-5-yl)methyl)formimidamide] were, in that order, 0.39 µM (≈ 0.16 µg/mL) and 0.29 µM (≈ 0.119 µg/mL).
Turning to `N=CNC[C@H]1CN(c2cc(F)c(-c3cccc(S(N)(=O)=O)c3)c(F)c2)C(=O)O1` [Example 19, (S)-N-((3-(2,6-difluoro-3′-sulfamoyl-[1,1′-biphenyl]-4-yl)-2-oxooxazolidin-5-yl)methyl)formimidamide], the MIC runs as follows: under setting [1], 0.68 µM (≈ 0.279 µg/mL); under setting [2], 0.39 µM (≈ 0.16 µg/mL).
For the compound `N=CNC[C@H]1CN(c2cc(F)c(N3CCOCC3)c(F)c2)C(=O)O1` [Example 20, (S)-N-((3-(3,5-difluoro-4-morpholinophenyl)-2-oxooxazolidin-5-yl)methyl)formimidamide], the MIC was 0.58 µM (≈ 0.197 µg/mL) under setting [1] and 0.14 µM (≈ 0.0476 µg/mL) under setting [2].
In the same order, the values of `CC(=N)NC[C@H]1CN(c2ccc(-c3ccnn3C)c(F)c2)C(=O)O1` [Example 21, (S)-N-((3-(3-fluoro-4-(1-methyl-1H-pyrazol-5-yl)phenyl)-2-oxooxazolidin-5-yl)methyl)acetimidamide] are 25 µM (≈ 8.28 µg/mL) and 25 µM (≈ 8.28 µg/mL).
As to `CC(=N)NC[C@H]1CN(c2cc(F)c(-c3cccc(S(N)(=O)=O)c3)c(F)c2)C(=O)O1` [Example 22, (S)-N-((3-(2,6-difluoro-3′-sulfamoyl-[1,1′-biphenyl]-4-yl)-2-oxooxazolidin-5-yl)methyl)acetimidamide], the MIC came out at 6.25 µM (≈ 2.65 µg/mL) under setting [1] and 3.12 µM (≈ 1.32 µg/mL) under setting [2].
In the same order, the values of `CC(=N)NC[C@H]1CN(c2ccc(-c3ccc(-n4cnnn4)nc3)c(F)c2)C(=O)O1` [Example 23, (S)-N-((3-(4-(6-(1H-tetrazol-1-yl)pyridin-3-yl)-3-fluorophenyl)-2-oxooxazolidin-5-yl)methyl)acetimidamide] are 12.5 µM (≈ 4.95 µg/mL) and 6.25 µM (≈ 2.48 µg/mL).
In the same order, the values of `CC(=N)NC[C@H]1CN(c2ccc(-c3cccc(S(N)(=O)=O)c3)c(F)c2)C(=O)O1` [Example 24, (S)-N-((3-(2-fluoro-3′-sulfamoyl-[1,1′-biphenyl]-4-yl)-2-oxooxazolidin-5-yl)methyl)acetimidamide] are 6.25 µM (≈ 2.54 µg/mL) and 6.25 µM (≈ 2.54 µg/mL).
In the same order, the values of `CC(=O)NC[C@H]1CN(c2ccc(N3CCOCC3)c(F)c2)C(=O)O1` [Linezolid, reference compound] are 3.14 µM (≈ 1.06 µg/mL) and 4.58 µM (≈ 1.55 µg/mL).

These data come from patent US10752621B2, “Oxazolidinone compounds and methods of use thereof as antibacterial agents” (priority 2017, dated 2020).
